Where two headings read alike, the source gives them in different places.
Experiments:
ERα [1] = biological target: ERα (Homo sapiens, UniProt P03372)
Method: (§1) Yeast two-hybrid experiments are carried out in the yeast strain (MATa; his3-Δ200; leu2-3,112; trp1-901; [plexAop]4::HIS3; [plexAop]8::lacZ), in which expression of the two reporter genes HIS3 and LacZ is under the control of the LexA operator sequence. This yeast strain cannot grow in absence of histidine in the culture medium, and yeast growth can be rescued only if expression of HIS3 gene is induced. Similarly, the LacZ reporter gene encoding the β-galactosidase marker is not expressed in this yeast strain. The bait plasmids encoding either the full-length or a region of the target protein (Nuclear Receptor, viral proteins for example), and the random peptide/VP16-AD library were transformed into the yeast strain and yeast colonies growing in absence of histidine were selected. […] Growth of false positive clones may be prevented by adding 3-amino-triazole (3AT), a competitive inhibitor of HIS3, to the medium. […] All conformation sensitive peptides dissociated by both target protein agonists and antagonists were selected for further characterization with the aim to develop screening platforms that allow the search of both activators and inhibitors of target protein in one single assay. The biological activity of each isolated conformation sensitive peptide is reconfirmed by isolation of conformation sensitive peptide encoding plasmids, re-transformation into yeast strain and analysis of HIS3 and lacZ gene expression in absence of histidine and in presence of target protein or non-target protein ligands in a spot test, as well as in a quantitative LacZ assay. 4.1—Identification in Yeast of Conformation Sensitive Peptides Interacting with the Estrogen Receptor
The bait plasmids encoding the full length or the DEF regions of the ERα and the prey peptide/VP16-AD VV01 library (diversity of 6.10^7) were transformed into the yeast strain. Yeast colonies growing in absence of histidine were selected. […] Growth of false positive clones was prevented by adding 3-amino-triazole (3AT), a competitive inhibitor of HIS3 to the medium. […] Out of the 484 clones, 40 were randomly picked for further studies.
The biological activity of each isolated 3D-Screen peptide was reconfirmed by isolation of 3D-Screen encoding plasmids, retransformation into the yeast strain (MATa; his3-Δ200; leu2-3,112; trp1-901; [plexAop]4::HIS3; [plexAop]8::lacZ) and analysis of HIS3 and lacZ gene expression in absence of Histidine and in presence of ER or non-ER ligands in a spot test.

[2] = biological target: NS5B protein of Hepatitis C virus (Hepatitis C virus genotype 1b, UniProt P26663); details: NS5BΔ21 bait, medium without Histidine; Gliotoxin 20 μM
Method: Yeast two-hybrid experiments are carried out in the yeast strain (MATa; his3-Δ200; leu2-3,112; trp1-901; [plexAop]4::HIS3; [plexAop]8::lacZ), in which expression of the two reporter genes HIS3 and LacZ is under the control of the LexA operator sequence. This yeast strain cannot grow in absence of histidine in the culture medium, and yeast growth can be rescued only if expression of HIS3 gene is induced. Similarly, the LacZ reporter gene encoding the β-galactosidase marker is not expressed in this yeast strain. The bait plasmids encoding either the full-length or a region of the target protein (Nuclear Receptor, viral proteins for example), and the random peptide/VP16-AD library were transformed into the yeast strain and yeast colonies growing in absence of histidine were selected. […] Growth of false positive clones may be prevented by adding 3-amino-triazole (3AT), a competitive inhibitor of HIS3, to the medium. […] The biological activity of each isolated conformation sensitive peptide is reconfirmed by isolation of conformation sensitive peptide encoding plasmids, re-transformation into yeast strain and analysis of HIS3 and lacZ gene expression in absence of histidine and in presence of target protein or non-target protein ligands in a spot test, as well as in a quantitative LacZ assay. […]

ERα [3] = test system: ERα
Excerpt: FIG. 10: Generation of a 3D-screen human cell screening platform for ERα Hela cells are transiently transfected with three expression plasmids encoding the reporter gene luciferase (eg. UAS-Luc), the target protein fused to a DNA Binding Domain (DBD) and the conformation sensitive peptide previously screened in yeast and fused to the VP16-AD, respectively with the jetPEI reagent. […] This platform was used to screen a small molecule library.
Hela cells are transiently transfected with three expression plasmids encoding the reporter gene luciferase (eg. UAS-Luc), the ERα fused to a DNA Binding Domain (DBD) and the conformation sensitive peptide previously screened in yeast and fused to the VP16-AD, respectively, with the jetPEI reagent. Cells are grown in the absence of any ligand (DMSO, lane 1; ethanol, lane 2), or in the presence of ER ligands (agonists E2, DES or antagonists 4OHT, lane 3-5) or non-ER ligands (Dex and 9C-RA; lanes 8 & 9), or in the presence of Estren (lane 6) at 100 nM (right panel) and 10 μM (left panel).
Hela cells are transiently transfected with three expression plasmids encoding the reporter gene luciferase (eg. UAS-Luc), the ERα fused to a DNA Binding Domain (DBD) and the conformation sensitive peptide previously screened in yeast and fused to the VP16-AD, respectively, with the jetPEI reagent.
HeLa cells were transiently transfected with plasmid using the optimized jetPEI transfection protocol (PolyPlus Transfection, Illkirch, France). […] Chemical ligands are added to the cell culture medium 24H after transfection. Luciferase activity was measured 24H later. […] Cells are trypsinised and plated in 96 well-plates (or 384 well-plates) at 5×10^4 cells per well 24H after transfection, and small molecules are added upon cell adhesion. Luciferase activity is measured 24 H later.
The three expression plasmids, UAS-luc, full-length ER and 3D-screen/VP16AD (#30-2) were co-transfected in Hela cells in large dishes. Cells were then reseeded in a 96-well plate format 24 H after transfection and chemical compounds are added upon cell adhesion. Luciferase activity was measured 24 H later. Internal controls were also included, consisting in known ER- or non-ER ligands as previously indicated.

bone cells = details: cited from earlier work
wild-type ERα = wild-type ERα (Homo sapiens, UniProt P03372); details: HeLa, ERE-luc, 24 H
Sequence of wild-type ERα (P03372 whole entry): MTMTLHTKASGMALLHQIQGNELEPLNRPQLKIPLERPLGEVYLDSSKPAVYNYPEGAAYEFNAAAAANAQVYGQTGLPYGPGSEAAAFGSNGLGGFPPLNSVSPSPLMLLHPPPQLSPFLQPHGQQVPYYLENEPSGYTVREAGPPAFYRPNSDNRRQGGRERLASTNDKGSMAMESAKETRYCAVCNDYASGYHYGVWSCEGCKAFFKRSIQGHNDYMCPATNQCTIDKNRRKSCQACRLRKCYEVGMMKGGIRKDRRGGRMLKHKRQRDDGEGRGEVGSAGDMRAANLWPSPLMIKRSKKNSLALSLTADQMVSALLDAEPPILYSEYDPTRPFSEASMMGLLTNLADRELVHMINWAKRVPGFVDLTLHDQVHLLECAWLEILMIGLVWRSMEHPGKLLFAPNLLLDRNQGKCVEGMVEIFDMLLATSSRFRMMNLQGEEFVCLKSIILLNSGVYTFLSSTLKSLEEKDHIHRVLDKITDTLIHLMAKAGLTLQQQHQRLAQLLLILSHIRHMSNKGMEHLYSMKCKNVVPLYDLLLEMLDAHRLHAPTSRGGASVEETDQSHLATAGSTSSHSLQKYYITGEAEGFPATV
Method: Furthermore, the potential agonist and antagonist properties of these hits were investigated in HeLa cells by co-transfection of an ERE-luc reporter plasmid, in which the luciferase gene is under the control of the estrogen-responsive elements (ERE), and an expression plasmid encoding the wild-type ERα. Transfections were performed as previously described for the primary screening, and cells are inclubated for 24 H either in the presence of the chemical hits alone to test for their agonist activity, or in the presence of the hit together with 100 nM E2 to test for their antagonist activity.

[4] = biological target: human retinoic acid receptor alpha (RARα) (Homo sapiens, UniProt P10276); details: RAR-DEF bait, 28 selected clones, medium without histidine
Sequence of human retinoic acid receptor alpha (RARα) (P10276 183-417 limits assumed): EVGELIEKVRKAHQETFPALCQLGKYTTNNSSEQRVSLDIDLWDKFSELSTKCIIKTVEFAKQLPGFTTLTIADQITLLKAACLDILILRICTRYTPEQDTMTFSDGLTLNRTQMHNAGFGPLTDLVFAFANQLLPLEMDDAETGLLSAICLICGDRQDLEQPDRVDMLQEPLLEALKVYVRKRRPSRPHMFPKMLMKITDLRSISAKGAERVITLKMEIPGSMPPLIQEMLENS
Method: as §1

Sequence of ERα (Homo sapiens, UniProt P03372) (P03372 311-547 limits assumed): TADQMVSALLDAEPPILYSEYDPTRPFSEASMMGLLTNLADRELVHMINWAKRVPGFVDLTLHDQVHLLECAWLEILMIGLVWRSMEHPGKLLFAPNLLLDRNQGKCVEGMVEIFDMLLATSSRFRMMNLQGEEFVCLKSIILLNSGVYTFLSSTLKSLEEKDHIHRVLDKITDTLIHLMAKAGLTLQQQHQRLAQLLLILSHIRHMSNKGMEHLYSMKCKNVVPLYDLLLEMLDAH

Row | Compound | peptide binding to ER in the presence of non-ER ligands (growth, lacZ) (ERα [1]) | peptide binding to ER on addition of ER ligands (growth under selective conditions) (ERα [1]) | reporter genes (His3 and LacZ) on interaction of peptide with ER in the un-liganded form (ERα [1]) | luciferase expression (FIG. 13) (ERα [3]) | other results
1 | F C T P I R M F Y R A P L W D L N K [peptide 30-2] | all clones are growing under selective conditions and stain positive for lacZ | clones are not growing under selective conditions | clones are growing under selective conditions and stain positive for lacZ | – | –
2 | CN1C(=O)[C@]23CC4=CC=C[C@H](O)[C@H]4N2C(=O)[C@@]1(CO)SS3 [gliotoxin] | – | – | – | – | effect of added compound on yeast growth and HIS3/LacZ expression (dissociation of peptides from NS5B) [2]: shut-off of HIS3 and the prevention of growth of the yeast
3 | S C C T Q H V C Y R P R A Y R [peptide 5-21] | all clones are growing under selective conditions and stain positive for lacZ | clones are not growing under selective conditions | clones are growing under selective conditions and stain positive for lacZ | – | –
4 | C[C@]12CC[C@@H]3c4ccc(O)cc4C[C@@H](CCCCCCCCC[S+]([O-])CCCC(F)(F)C(F)(F)F)[C@H]3[C@@H]1CC[C@@H]2O (stereo partly drawn) [ICI182780] | – | – | – | preventing the expression of luciferase | luciferase expression upon addition of ligand (ERα [3]): strongly reduced
5 | S I T T L F Y H A M F G F V P [peptide 9-23] | all clones are growing under selective conditions and stain positive for lacZ | clones are not growing under selective conditions | clones are growing under selective conditions and stain positive for lacZ | – | –
6 | NC(=O)c1ncn([C@@H]2O[C@H](CO)[C@@H](O)[C@H]2O)n1 [ribavirin] | – | – | – | – | effect of added compound on yeast growth and HIS3/LacZ expression (dissociation of peptides from NS5B) [2]: no effect on yeast growth
7 | Estren | – | – | – | – | apoptosis of bone cells and effect on reproductive organs (bone cells): prevent apoptosis of bone cells without affecting the reproductive organs; luciferase expression (FIG. 11) (ERα [3]): preventing the expression of luciferase; agonist activity (hit alone) (wild-type ERα): do not allow the identification; antagonist activity (hit together with 100 nM E2) (wild-type ERα): do not allow the identification
8 | 9-cis retinoic acid | – | – | – | strong | effect of added ligand on growth of yeast clones (dissociation of peptide/VP16AD from RARα) [4]: suppresses the growth of 14 of these clones; luciferase expression (FIG. 11) (ERα [3]): strong; effect of added ligand on growth and LacZ expression of yeast clones (dissociation of peptide/VP16AD from ERα) (ERα [1]): no effect
9 | CC1=C(/C=C/C(C)=C/C=C/C(C)=C/C(=O)O)C(C)(C)CCC1 [all-trans-Retinoic Acid] | – | – | – | strong | effect of added ligand on growth of yeast clones (dissociation of peptide/VP16AD from RARα) [4]: suppresses the growth of 14 of these clones; effect of added ligand on growth of yeast clones (dissociation of peptide/VP16AD from RARα) ([4]; listed as AT-RA): selective dissociation of the peptide/VP16AD protein induced only by the AT-RA ligand
